According to patent publication US10711041B2, “Lyophilisate containing a cyclic peptide of formula X1-[sequence]-X2” (priority 2013, dated 2020):

How the values were obtained:
[1] = Concentration in lung tissue and blood after aerosol inhalation, rat; format: in vivo; conditions: after inhalation of aerosol
Procedure: The proof of a cyclic peptide of amino acid sequence SEQ ID NO:1 to SEQ ID NO:6 may take place in lung tissue of rats. For that exemplarily an aerosol was produced with a nebulizer from an aqueous solution of the cyclic peptide of amino acid sequence SEQ ID NO:1. The aerosol was inhaled by the experimental animal (72 mg/kg body weight). After termination of aerosol inhalation, the lung tissue, as well as the blood of the experimental animal was examined. By means of reverse HPLC/MS the concentration of the cyclic peptide of amino acid sequence SEQ ID NO:1 was determined Exemplarily, the cyclic peptide of amino acid sequence SEQ ID NO:1 could be detected in the lung tissue in a concentration of 1.2 μm/g after inhalation of 72 mg/kg body weight in sum. In contrast to that the cyclic peptide of amino acid sequence SEQ ID NO:1 could not be detected in the blood up to a detection limit of 0.1 μm/ml.

[2] = Aerosol droplet size characterisation (laser diffraction / impactor); format: physicochemical
Text: By means of a nebulizer which converts aqueous solution into an aerosol, also the aqueous solutions of the cyclic peptides of amino acid sequence SEQ ID NO:1 to SEQ ID NO:6 may be converted into aerosols. Such aerosols can be characterized with respect to the medium droplet size, as well as to size distribution of the aerosol droplets. For that conventional methods are used, which are described also in pharmacopoeias. The one analytical method uses the cascade impactor in its actual construction, the “Next Generation Impactor”. Thereby the aerosol is conducted through a series of sieve plates, whereby the diameter of the holes is diminished with each plate and the amount of the holes is increased. In the other analytical method, the laser-diffraction measurement, the droplet sizes are determined by means of laser. The 2 important parameters which are determined during these measurements, one the one hand is the median of the diameter of all droplets, and on the other hand, the amount of droplets having a diameter of ≤5 μm. In the literature that diameter is described as a limit, under which inhaled aerosol particles arrive in fact in the lung.
It is ramblingly known, that in practice from a generated aerosol only a part is available for the patient. Thus, for determining the amount of aerosol which is available for a user, trials with a breathing simulator were carried out. For investigating the particle size and for the implementation of the breathing simulation an aerosol from an aqueous solution of the cyclic peptide of amino acid sequence SEQ ID NO:1 was used. For generating aerosol different nebulizer types were used. The nebulizers A and B were so called “Mesh-Type nebulizers”.

[3] = Stability of the aqueous solution before inhalation (visual inspection, reverse HPLC); format: physicochemical
Procedure: For that reason the stability of an aqueous solution was investigated exemplarily. The ready to use-solution therefore was stored either in a syringe commonly used in laboratory, at 2 to 8° C. for 7 days, or in a container of a nebulizer at 25° C. for 24 hours. […] The methods used therefore were analytical methods commonly used in laboratory, as for example the visual inspection, as well as analysis by means of reverse HPLC.

[4] = Chemical stability of condensed aerosol by reverse HPLC/MS; format: physicochemical; conditions: Mesh-Type nebulizer, aerosol condensed in cooling trap
Procedure: Since proteins and peptides occasionally may be rather unstable, it was investigated, whether the cyclic peptides of amino acid sequence SEQ ID NO:1 to SEQ ID NO:6 in dissolved preparation during conversion into an aerosol remain stable. For that the cyclic peptides were dissolved in water as described in example 4. After filling into the storage container of a nebulizer the aqueous solution of the cyclic peptides were converted into an aerosol. For that a “Mesh-Type” nebulizer was used. The biological activity of the collected aerosols was determined by means of the Patch Clamp method. Thereby macroscopic currents of A549 cells were deduced in the “whole cell” configuration of the “Patch-clamp” technique, as described under “Electrophysiological Investigations of the Amilorid-sensitive Sodium Ion Channel (ENaC)”.
The chemical stability of the condensed aerosols was determined by means of reverse HPLC/MS.

[5] = Stability investigation of the lyophilisate (visual inspection, reverse HPLC); format: physicochemical
Procedure: For that the lyophilisate was stored up to 24 months at 2 to 8° C. and up to 6 months at 25° C. at 60% relative humidity. Stability was investigated at different time points during that period. In particular the appearance, contents, as well as purity of the cyclic peptides were investigated. For that laboratory-common analytical processes were used, such as e.g. visual inspection and reverse HPLC.

[6] = laboratory syringe, 2 to 8° C., T = 0 to 7 days
[7] = storage container of a nebulizer, 25° C., T = 0 to 24 hours

C[C@@H]1NC(=O)CNC(=O)[C@H](CCC(=O)O)NC(=O)[C@@H]2CCCN2C(=O)[C@H]([C@@H](C)O)NC(=O)[C@H](CCC(=O)O)NC(=O)[C@H](CCCNC(=N)N)NC(=O)[C@H](CCC(N)=O)NC(=O)CNC(=O)[C@@H](N)CSSC[C@@H](C(=O)O)NC(=O)[C@H](Cc2ccc(O)cc2)NC(=O)[C@H](Cc2c[nH]c3ccccc23)NC(=O)[C@@H]2CCCN2C(=O)[C@H](CCCCN)NC(=O)[C@H](C)NC(=O)[C@H](CCC(=O)O)NC1=O [SEQ ID NO: 1]
concentration in lung tissue ([1]; 72 mg/kg body weight in sum): 1.2 μm/g | concentration in blood ([1]; 72 mg/kg, detection limit): < 0.1 μm/ml | amount of droplets with a diameter of ≤5 μm in the aerosol ([2]; all nebulizers): at least 50% | Amount of particles with Ø ≤5 μm ([2]; nebulizer Type A): 50% | Median particle diameter of aerosol ([2]; nebulizer Type A): 4.7 μm | Amount of particles with Ø ≤5 μm ([2]; nebulizer Type B): 70% | Median particle diameter of aerosol ([2]; nebulizer Type B): 3.3 μm | Amount of particles with Ø ≤5 μm ([2]; nebulizer Type C): 65% | Median particle diameter of aerosol ([2]; nebulizer Type C): 3.7 μm | Purity of aqueous solution (stability study) ([3]; laboratory syringe, 2 to 8° C., T = 0): 96.3% | Amount/contents of aqueous solution [3, 6]: 25 mg/mL | Appearance of aqueous solution [3, 6]: clear solution | Purity of aqueous solution (stability study) ([3]; laboratory syringe, 2 to 8° C., T = 7 days): 96.2% | Purity of aqueous solution (stability study) ([3]; storage container of a nebulizer, 25° C., T = 0): 96.6% | Amount/contents of aqueous solution [3, 7]: 25 mg/mL | Appearance of aqueous solution [3, 7]: clear solution | Purity of aqueous solution (stability study) ([3]; storage container of a nebulizer, 25° C., T = 24 hours): 96.5% | chemical stability during transformation into an aerosol [4]: keeps its biological, as well as its chemical stability | Amount/Contents of lyophilisate ([5]; storage 2-8° C., T = 0): 100% | Purity of lyophilisate (stability study) ([5]; storage 2-8° C., T = 0): 96% | Appearence of lyophilisate ([5]; storage 2-8° C., T = 0 to T = 24 M): white powder | Amount/Contents of lyophilisate ([5]; storage 2-8° C., T = 24 M): 99% | Purity of lyophilisate (stability study) ([5]; storage 2-8° C., T = 24 M): 96% | Amount/Contents of lyophilisate ([5]; storage 25° C./60% rH, T = 0): 100% | Purity of lyophilisate (stability study) ([5]; storage 25° C./60% rH, T = 0): 96% | Appearence of lyophilisate ([5]; storage 25° C./60% rH, T = 0 to T = 6 M): white powder | Amount/Contents of lyophilisate ([5]; storage 25° C./60% rH, T = 6 M): 99% | Purity of lyophilisate (stability study) ([5]; storage 25° C./60% rH, T = 6 M): 95%
